Laboratory results published in patent US10829452B2, “Histone methyltransferase inhibitors” (GLOBAL BLOOD THERAPEUTICS, INC., priority 2016, dated 2020).
Counter-ions that a name gives are not always drawn.

biological target: T1, G9a (Homo sapiens, UniProt Q96KQ7); test: G9a AlphaLISA enzymatic activity assay; type: biochemical; details: 0.15 nM G9a, 15 uM S-adenosyl-methionine, 100 nM biotinylated histone 3 peptide (1-21), 1 hour at room temperature; read-out: G9a in (uM) (IC50, concentration that produced 50% inhibition)
T1 sequence (Q96KQ7 1-1210): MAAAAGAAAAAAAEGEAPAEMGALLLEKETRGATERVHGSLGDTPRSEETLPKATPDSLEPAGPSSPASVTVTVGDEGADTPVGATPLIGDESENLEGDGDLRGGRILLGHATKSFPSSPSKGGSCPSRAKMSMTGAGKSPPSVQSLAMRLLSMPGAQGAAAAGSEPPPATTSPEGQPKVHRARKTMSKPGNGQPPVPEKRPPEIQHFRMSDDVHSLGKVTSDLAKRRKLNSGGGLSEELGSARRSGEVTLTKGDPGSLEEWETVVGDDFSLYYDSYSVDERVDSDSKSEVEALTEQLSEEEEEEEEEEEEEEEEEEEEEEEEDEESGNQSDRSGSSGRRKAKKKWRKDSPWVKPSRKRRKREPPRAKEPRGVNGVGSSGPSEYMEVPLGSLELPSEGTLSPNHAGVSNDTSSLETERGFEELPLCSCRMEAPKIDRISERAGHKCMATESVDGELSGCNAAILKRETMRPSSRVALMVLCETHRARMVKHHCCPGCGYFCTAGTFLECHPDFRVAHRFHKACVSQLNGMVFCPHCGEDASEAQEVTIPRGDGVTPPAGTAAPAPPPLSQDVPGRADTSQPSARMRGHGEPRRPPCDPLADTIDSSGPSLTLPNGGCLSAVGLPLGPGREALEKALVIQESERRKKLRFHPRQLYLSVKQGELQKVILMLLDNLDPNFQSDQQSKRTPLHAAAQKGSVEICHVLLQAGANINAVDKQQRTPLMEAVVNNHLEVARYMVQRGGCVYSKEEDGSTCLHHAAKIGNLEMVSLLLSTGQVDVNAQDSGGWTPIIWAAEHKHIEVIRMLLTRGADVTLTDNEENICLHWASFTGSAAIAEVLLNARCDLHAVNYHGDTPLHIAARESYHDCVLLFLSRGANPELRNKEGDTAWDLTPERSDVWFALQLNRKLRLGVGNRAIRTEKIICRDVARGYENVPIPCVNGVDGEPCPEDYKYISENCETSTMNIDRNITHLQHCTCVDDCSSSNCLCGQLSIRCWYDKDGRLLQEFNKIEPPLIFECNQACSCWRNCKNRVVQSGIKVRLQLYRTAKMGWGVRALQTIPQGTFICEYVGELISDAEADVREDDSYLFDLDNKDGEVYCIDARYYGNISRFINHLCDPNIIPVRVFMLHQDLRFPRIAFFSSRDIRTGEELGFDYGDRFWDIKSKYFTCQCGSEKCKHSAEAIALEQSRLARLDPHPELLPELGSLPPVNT
Excerpt: The G9a AlphaLISA assay was used to detect the methyl modifications of a biotinylated histone H3 peptide by the compounds. These modifications are done by the histone methyl transferase activity of the G9a enzyme. The assay consists of reading a chemiluminescent signal at 615 nm; this signal is generated by a laser excitation at 680 nm that transfers a reactive singlet oxygen between the donor beads and acceptor beads. Donor beads are streptavidin conjugated and bind to the biotin on the peptide. Acceptor beads are conjugated with an antibody that recognizes the specific G9a methyl mark on the peptide. If there is a methyl mark on the peptide, the acceptor beads will bind to the peptide. Upon binding, the acceptor beads will be in close proximity (<200 nm) of the donor beads and when the donor beads are excited, the transfer of the oxygen can occur and a strong signal will be generated. If there is no methyl mark, the interaction between beads will not occur and signal will be at background levels.
For the assay, the following buffer was used to set up reactions: 50 mM Tris-HCl pH9, 50 mM NaCl, 0.01% Tween-20 and 1 mM DTT (added fresh prior to starting the reactions). The assay is set up by adding a final concentration of 0.15 nM G9a, 15 uM S-adenosyl-methionine and, 100 nM biotinylated histone 3 peptide (1-21). The reaction is incubated at room temperature for 1 hour, and subsequently quenched by the addition of the acceptor beads (anti-H3k9me2 AlphaLISA acceptor beads, PerkinElmer # AL117) at a final concentration of 20 ug/mL. The acceptor beads are incubated for 1 hour. After 1 hour, the donor beads are added at a final concentration of 20 ug/mL (Alpha Streptavidin donor beads, PerkinElmer #6760002). Donor beads are incubated for 0.5 hours. Both donor and acceptor beads are resuspended in AlphaLISA 5X Epigenetics Buffer 1 Kit (PerkinElmer # AL008) prior to addition to the reaction. All manipulations and incubations with the donor and acceptor beads are done in subdued light. Signal is detected in an EnVision plate reader in Alpha mode (see ACS Med Chem Lett. 2014 Jan. 2; 5(2):205-9. doi: 10.1021/m1400496h. eCollection 2014. Discovery and development of potent and selective inhibitors of histone methyltransferase g9a.)
Percent inhibition was calculated for each compound dilution and the concentration that produced 50% inhibition was calculated. This value is presented as the IC50.

IC50 [µM]	Compound
4.3	COc1cc2nc(NC(C)C)c3c(c2cc1OCCCN1CCCC1)COC3 [Example 45, 7-methoxy-N-(propan-2-yl)-8-[3-(pyrrolidin-1-yl)propoxy]-1H,3H-furo[3,4-c]quinolin-4-amine]
0.045	COc1cc2c3c(c(NC4CCC4)nc2cc1OCCCN1CCCC1)CCC3 [Example 7, N-cyclobutyl-8-methoxy-7-[3-(pyrrolidin-1-yl)propoxy]-1H,2H,3H-cyclopenta[c]quinolin-4-amine formate]
0.14	CNc1nc2cc(OCCCN3CCCC3)c(OC)cc2c2c1CC(O)CC2 (stereo not drawn) [Example 20, 2-methoxy-6-(methylamino)-3-[3-(pyrrolidin-1-yl)propoxy]-7,8,9,10-tetrahydrophenanthridin-8-ol formate]
0.88	COc1cc2c3c(c(NC(C)C)nc2cc1OCC1CCN(C)C1)CCCC3 (stereo not drawn) [Example 51, 2-methoxy-3-[(1-methylpyrrolidin-3-yl)methoxy]-N-(propan-2-yl)-7,8,9,10-tetrahydrophenanthridin-6-amine formate]
0.007	CCCCNc1nc2cc(OCCCN3CCCC3)c(OC)cc2c2c1CC(C)(C)C2 [Example 91, N-butyl-8-methoxy-2,2-dimethyl-7-[3-(pyrrolidin-1-yl)propoxy]-1H,2H,3H-cyclopenta[c]quinolin-4-amine formate]
0.14	COc1cc2c3c(c(N[C@H](C)C4CC4)nc2cc1OCCCN1CCCC1)CCC3 [Example 89, N-[(1R)-1-cyclopropylethyl]-8-methoxy-7-[3-(pyrrolidin-1-yl)propoxy]-1H,2H,3H-cyclopenta[c]quinolin-4-amine formate]
0.003	COc1cc2c3c(c(NC(C)C)nc2cc1OCCCN1CCCC1)CCN3 [Example 23, 8-methoxy-N-(propan-2-yl)-7-[3-(pyrrolidin-1-yl)propoxy]-1H,2H,3H-pyrrolo[3,2c]-quinolin-4-amine trifluoroacetate]
4.9	COc1cc2c3c(c(-c4ccccc4)nc2cc1OCCCN1CCCC1)CCC3 [Example 111, 1-[3-({8-methoxy-4-phenyl-1H,2H,3H-cyclopenta[c]quinolin-7-yl}oxy)propyl]pyrrolidine formate]
0.027	COc1cc2c3c(c(NC(C)C)nc2cc1OCCCN1CCCC1)CC(C)C3 (stereo not drawn) [Example 6, 8-methoxy-2-methyl-N-(propan-2-yl)-7-[3-(pyrrolidin-1-yl)propoxy]-1H,2H,3H-cyclopenta[c]quinolin-4-amine formate]
0.52	COc1cc2c3c(c(NC4CCOCC4)nc2cc1OCCCN1CCCC1)CCCC3 [Example 12, 2-methoxy-N-(oxan-4-yl)-3-[3-(pyrrolidin-1-yl)propoxy]-7,8,9,10-tetrahydrophenanthridin-6-amine trifluoroacetate]
0.6	COc1cc2c3c(c(-c4coc(C)c4)nc2cc1OCCCN1CCCC1)CCC3 [Example 90, 1-(3-{[8-methoxy-4-(5-methylfuran-3-yl)-1H,2H,3H-cyclopenta[c]quinolin-7-yl]oxy}propyl)pyrrolidine formate]
0.5	COc1cc2c3c(c(N[C@H]4C[C@H](O)C4)nc2cc1OCCCN1CCCC1)CCCC3 [Example 64, 3-({2-methoxy-3-[3-(pyrrolidin-1-yl)propoxy]-7,8,9,10-tetrahydrophenanthridin-6-yl}amino)cyclobutan-1-ol formate]
0.003	COc1cc2c3c(c(C4CCCC4)nc2cc1OCCCN1CCCC1)CCCCN3 [Example 79, 1-[3-({6-cyclopentyl-10-methoxy-1H,2H,3H,4H,5H-azepino[3,2-c]quinolin-9-yl}oxy)propyl]pyrrolidine triflate]
1.3	COc1cc2c3c(cnc2cc1OCCCN1CCCC1)CCCC3 [Example 40, 2-methoxy-3-[3-(pyrrolidin-1-yl)propoxy]-7,8,9,10-tetrahydrophenanthridine trifluoroacetate]
0.023	CC[C@H](C)Nc1nc2cc(OCCCN3CCCC3)c(OC)cc2c2c1CCC2 [Example 99, N-[(2S)-butan-2-yl]-8-methoxy-7-[3-(pyrrolidin-1-yl)propoxy]-1H,2H,3H-cyclopenta[c]quinolin-4-amine formate]
0.006	COc1cc2c3c(c(C)nc2cc1OCCCN1CCCC1)CCCN3 [Example 28, 1-[3-({9-methoxy-5-methyl-1H,2H,3H,4H-benzo[h]1,6-naphthyridin-8-yl}oxy)propyl]pyrrolidine trifluoroacetate]
0.009	COc1ccc(CNc2nc3cc(OCCCN4CCCC4)c(OC)cc3c3c2CCC3)c(OC)c1 [Example 115, N-[(2,4-dimethoxyphenyl)methyl]-8-methoxy-7-[3-(pyrrolidin-1-yl)propoxy]-1H,2H,3H-cyclopenta[c]quinolin-4-amine formate]
0.003	COc1cc2c3c(c(C)nc2cc1OCCCN1CCCC1)CCC(C)(C)N3 [Example 78, 1-[3-({9-methoxy-2,2,5-trimethyl-1H,2H,3H,4H-benzo[h]1,6-naphthyridin-8-yl}oxy)propyl]pyrrolidine]
0.19	COc1cc2c3c(c(NC(C)=O)nc2cc1OCCCN1CCCC1)CCC3 [Example 14, N-{8-methoxy-7-[3-(pyrrolidin-1-yl)propoxy]-1H,2H,3H-cyclopenta[c]quinolin-4-yl}acetamide trifluoroacetate]
0.21	CNc1nc2cc(OCCCN3CCCC3)c(OC)cc2c2c1COCC2 [Example 57, 9-methoxy-N-methyl-8-[3-(pyrrolidin-1-yl)propoxy]-1H,2H,4H-pyrano[3,4-c]quinolin-5-amine formate]
0.013	Cl.Cl.[2H]C(C)(C)Nc1nc2cc(OCCCN3CCCC3)c(OC)cc2c2c1CCC2 [Example 102, 8-methoxy-N-[(2-^2H)propan-2-yl]-7-[3-(pyrrolidin-1-yl)propoxy]-1H,2H,3H-cyclopenta[c]quinolin-4-amine hydrochloride]
0.21	CCNc1nc2cc(OCCCN3CCCC3)c(OC)cc2c2c1COC2 [Example 60, N-ethyl-8-methoxy-7-[3-(pyrrolidin-1-yl)propoxy]-1H,3H-furo[3,4-c]quinolin-4-amine formate]
0.04	COc1cc2c3c(c(NCCO)nc2cc1OCCCN1CCCC1)CCC3 [Example 4, 2-({8-methoxy-7-[3-(pyrrolidin-1-yl)propoxy]-1H,2H,3H-cyclopenta[c]quinolin-4-yl}amino)ethan-1-oltrifluoroacetate trifluoroacetate]
0.97	COc1cc2c3c(c(NC4CC4)nc2cc1OCCCN1CCCC1)COC3 [Example 48, N-cyclopropyl-8-methoxy-7-[3-(pyrrolidin-1-yl)propoxy]-1H,3H-furo[3,4-c]quinolin-4-amine]
